From article PMC6407587, “Inhibition potential of phenolic constituents from the aerial parts of Tetrastigma hemsleyanum against soluble epoxide hydrolase and nitric oxide synthase” (Journal of Enzyme Inhibition and Medicinal Chemistry, 2019)

Each compound was assayed against T1, sEH (Homo sapiens, UniProt P34913) (assay: sEH inhibitory activity, fluorescence assay with PHOME substrate). Conditions: 100 µM compound; tested three times.
T1 sequence (P34913 1-555): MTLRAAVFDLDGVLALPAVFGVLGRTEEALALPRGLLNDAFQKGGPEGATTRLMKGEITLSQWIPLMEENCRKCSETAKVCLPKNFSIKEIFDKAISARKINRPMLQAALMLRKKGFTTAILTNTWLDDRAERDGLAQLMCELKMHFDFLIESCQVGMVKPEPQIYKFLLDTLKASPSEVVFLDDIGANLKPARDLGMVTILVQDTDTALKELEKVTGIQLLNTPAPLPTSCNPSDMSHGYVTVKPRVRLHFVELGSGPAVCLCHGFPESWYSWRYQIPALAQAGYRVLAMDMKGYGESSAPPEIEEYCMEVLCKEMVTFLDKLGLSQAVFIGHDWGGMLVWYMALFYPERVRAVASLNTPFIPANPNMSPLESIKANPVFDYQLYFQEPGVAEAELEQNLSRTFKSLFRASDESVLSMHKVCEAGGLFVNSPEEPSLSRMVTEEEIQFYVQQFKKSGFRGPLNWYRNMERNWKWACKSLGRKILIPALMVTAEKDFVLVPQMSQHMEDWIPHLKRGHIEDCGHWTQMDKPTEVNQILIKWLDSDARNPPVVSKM
Assay type: biochemical
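Wherever Cytotoxicity in RAW 264.7 cells (MTT) is given: viability gauged by mitochondrial reductase turning MTT into formazan, optical density read at 570 nm, with untreated control cells set as 100% viability.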

First: COc1cc(/C=C/C(=O)O[C@@H]2C[C@@](O)(C(=O)O)C[C@@H](O)[C@@H]2O)ccc1O [Compound 3]
Second: CCCCOC(=O)[C@@]1(O)C[C@@H](O)[C@H](O)[C@H](OC(=O)/C=C/c2ccc(O)c(O)c2)C1 [Compound 5]
The inhibition at 100 µM of the first is lower: 67.1 ± 3.4% for the first, 77.7 ± 2.6% for the second.

Compared with `O=C(C=Cc1ccc(O)c(O)c1)OC1C(O)CC(O)(C(=O)O)CC1O` (centres unmarked) [Compound 7], `COc1cc(/C=C/C(=O)O)ccc1O` [Compound 31] is lower in inhibition at 100 µM: 69.2 ± 0.9% for the first, 43 ± 1.1% for the second.

First: C[C@@H]1O[C@@H](OC[C@H]2O[C@@H](Oc3c(-c4ccc(O)cc4)oc4cc(O)cc(O)c4c3=O)[C@H](O)[C@@H](O)[C@H]2O)[C@H](O)[C@H](O)[C@H]1O [Compound 15]
Second: O=c1c(O[C@@H]2O[C@H](CO)[C@@H](O)[C@H](O)[C@H]2O)c(-c2ccc(O)cc2)oc2cc(O)cc(O)c12 [Compound 14]
The inhibition at 100 µM of the first is lower: 60.2 ± 0.5% for the first, 78 ± 1% for the second.

Going from `OC[C@H]1O[C@@H](OCCc2ccccc2)[C@H](O)[C@@H](O)[C@@H]1O` [Compound 34] to `CC/C=C\CCO[C@@H]1O[C@H](CO)[C@@H](O)[C@H](O)[C@H]1O` [Compound 37], the inhibition at 100 µM rises from 13.3 ± 0.2% to 24.6 ± 3.1%.

Going from `OC[C@H]1O[C@@H](OC[C@@H](O)c2ccc(O)cc2)[C@H](O)[C@@H](O)[C@@H]1O` [Compound 35] to `O=C(O)/C=C/c1ccc(O)cc1` [Compound 29], the inhibition at 100 µM rises from 10.5 ± 3% to 39.7 ± 4.4%.

Going from `O=Cc1ccc(O)c(O)c1` [Compound 24] to `COc1cc(C(=O)O)ccc1O` [Compound 26], the inhibition at 100 µM falls from 38.6 ± 0.2% to 21.3 ± 0.2%.

Going from `COc1ccc(C(=O)O)cc1O` [Compound 27] to `COc1cc(C(=O)O)cc(OC)c1O` [Compound 23], the inhibition at 100 µM falls from 17.5 ± 0.2% to 10.7 ± 3%.

Same assay, conditions: PHOME substrate; dose-dependent response curve

First: COC(=O)C1(O)CC(O)C(OC(=O)C=Cc2ccc(O)c(O)c2)C(O)C1 (centres unmarked) [Compound 8]
Second: O=C(C=Cc1ccc(O)c(O)c1)OC1C(O)CC(O)(C(=O)O)CC1O (centres unmarked) [Compound 7]
The IC50 of the first is 5.4-fold lower: 9.4 ± 0.2 µM for the first, 50.8 ± 1.5 µM for the second. The first is the more potent here.

First: O=c1ccc2cc(O)c(O)cc2o1 [Compound 19]
Second: O=C(O)/C=C/c1ccc(O)c(O)c1 [Compound 30]
The IC50 of the first is 4.7-fold lower: 4.5 ± 0.2 µM for the first, 21 ± 0.4 µM for the second. The first is the more potent here.

Going from `COc1cc(/C=C/C(=O)O[C@@H]2C[C@@](O)(C(=O)O)C[C@@H](O)[C@@H]2O)ccc1O` [Compound 3] to `CCCCOC(=O)[C@@]1(O)C[C@@H](O)[C@H](O)[C@H](OC(=O)/C=C/c2ccc(O)c(O)c2)C1` [Compound 5], the IC50 falls from 60.7 ± 1.9 µM to 33.1 ± 0.3 µM (1.8-fold).

`C[C@@H]1O[C@@H](OC[C@H]2O[C@@H](Oc3c(-c4ccc(O)cc4)oc4cc(O)cc(O)c4c3=O)[C@H](O)[C@@H](O)[C@H]2O)[C@H](O)[C@H](O)[C@H]1O` [Compound 15] and `O=c1c(O[C@@H]2O[C@H](CO)[C@@H](O)[C@H](O)[C@H]2O)c(-c2ccc(O)cc2)oc2cc(O)cc(O)c12` [Compound 14] are within 1.5-fold of each other in IC50: 18.3 ± 0.2 µM for the first, 21.3 ± 0.3 µM for the second.

Work on `Oc1ccc(/C=C/c2cc(O)cc(O)c2)cc1` [Compound 32] yielded an IC50 of 6.8 ± 0.9 µM.

What follows are compounds tested against T1, sEH (assay: sEH binding mechanism, Dixon and Lineweaver-Burk plots at different substrate and inhibitor concentrations). Conditions: Dixon plots.
Assay type: biochemical

`COC(=O)C1(O)CC(O)C(OC(=O)C=Cc2ccc(O)c(O)c2)C(O)C1` (centres unmarked) [Compound 8] and `O=c1ccc2cc(O)c(O)cc2o1` [Compound 19] are within 1.5-fold of each other in Ki: 13.7 µM for the first, 10.2 µM for the second.

These compounds were tested on LPS-induced NO production in macrophage RAW 264.7 cells (iNOS) (assay: Inhibition of LPS-induced NO production in RAW 264.7 macrophages (Griess reaction, measure of iNOS activity)). Conditions: LPS-stimulated RAW264.7 cells; means ± SE, n = 3.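 Further: cells pretreated with compound for 2 h, then stimulated 24 h with LPS at 500 ng/ml, supernatant nitrite quantified by absorbance at 550 nm against a nitrite standard curve.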
Assay type: cell-based

Compound `C[C@@H]1C[C@H]2[C@@H]3CCC4=CC(=O)C=C[C@]4(C)[C@@]3(F)[C@@H](O)C[C@]2(C)[C@@]1(O)C(=O)CO` [Dexamethasone, reference compound] has an IC50 of 10.5 ± 0.1 µM.

Same assay, conditions: Mus musculus, RAW264.7, LPS-stimulated RAW264.7 cells; means ± SE, n = 3

Going from `O=c1ccc2cc(O)c(O)cc2o1` [Compound 19] to `Oc1ccc(/C=C/c2cc(O)cc(O)c2)cc1` [Compound 32], the IC50 falls from 47.3 ± 6.9 µM to 30.6 ± 1.8 µM (1.5-fold).

Going from `CCCCOC(=O)[C@@]1(O)C[C@@H](O)[C@H](O)[C@H](OC(=O)/C=C/c2ccc(O)c(O)c2)C1` [Compound 5] to `C[C@@H]1C[C@H]2[C@@H]3CCC4=CC(=O)C=C[C@]4(C)[C@@]3(F)[C@@H](O)C[C@]2(C)[C@@]1(O)C(=O)CO` [Dexamethasone, reference compound], the IC50 falls from 45.3 ± 1.4 µM to 10.5 ± 0.13 µM (4.3-fold).

Same assay, conditions: Mus musculus; 50 µM compound; LPS-stimulated RAW264.7 cells; read-out: Inhibition of NO production at 50 µM (%)

Going from `COC(=O)C1(O)CC(O)C(OC(=O)C=Cc2ccc(O)c(O)c2)C(O)C1` (centres unmarked) [Compound 8] to `O=C(C=Cc1ccc(O)c(O)c1)OC1C(O)CC(O)(C(=O)O)CC1O` (centres unmarked) [Compound 7], the inhibition at 50 µM falls from 25.2% to 10.7%.

Compared with `O=c1ccc2cc(O)c(O)cc2o1` [Compound 19], `O=Cc1ccc(O)c(O)c1` [Compound 24] is lower in inhibition at 50 µM: 50.1% for the first, 22.2% for the second.

First: COc1cc(/C=C/C(=O)O[C@@H]2C[C@@](O)(C(=O)O)C[C@@H](O)[C@@H]2O)ccc1O [Compound 3]
Second: CCCCOC(=O)[C@@]1(O)C[C@@H](O)[C@H](O)[C@H](OC(=O)/C=C/c2ccc(O)c(O)c2)C1 [Compound 5]
The inhibition at 50 µM of the first is lower: 26.1% for the first, 53% for the second.

Compared with `C[C@@H]1O[C@@H](OC[C@H]2O[C@@H](Oc3c(-c4ccc(O)cc4)oc4cc(O)cc(O)c4c3=O)[C@H](O)[C@@H](O)[C@H]2O)[C@H](O)[C@H](O)[C@H]1O` [Compound 15], `O=c1c(O[C@@H]2O[C@H](CO)[C@@H](O)[C@H](O)[C@H]2O)c(-c2ccc(O)cc2)oc2cc(O)cc(O)c12` [Compound 14] is higher in inhibition at 50 µM: 3% for the first, 9% for the second.

Compared with `O=C(O)/C=C/c1ccc(O)c(O)c1` [Compound 30], `COc1cc(/C=C/C(=O)O)ccc1O` [Compound 31] is lower in inhibition at 50 µM: 21.5% for the first, 10.6% for the second.

Compared with `OC[C@H]1O[C@@H](OCCc2ccccc2)[C@H](O)[C@@H](O)[C@@H]1O` [Compound 34], `CC/C=C\CCO[C@@H]1O[C@H](CO)[C@@H](O)[C@H](O)[C@H]1O` [Compound 37] is higher in inhibition at 50 µM: 12.8% for the first, 14.5% for the second.

Going from `OC[C@H]1O[C@@H](OC[C@@H](O)c2ccc(O)cc2)[C@H](O)[C@@H](O)[C@@H]1O` [Compound 35] to `O=C(O)/C=C/c1ccc(O)cc1` [Compound 29], the inhibition at 50 µM falls from 15.9% to 13.4%.

Compared with `COc1ccc(C(=O)O)cc1O` [Compound 27], `COc1cc(C(=O)O)ccc1O` [Compound 26] is lower in inhibition at 50 µM: 24% for the first, 11.4% for the second.

Going from `Oc1ccc(/C=C/c2cc(O)cc(O)c2)cc1` [Compound 32] to `COc1cc(C(=O)O)cc(OC)c1O` [Compound 23], the inhibition at 50 µM falls from 77.7% to 14.1%.

These compounds were tested on RAW 264.7 cells (assay: not given). Conditions: not given.

For `COC(=O)C1(O)CC(O)C(OC(=O)C=Cc2ccc(O)c(O)c2)C(O)C1` (centres unmarked) [Compound 8], the “Cytotoxicity in RAW 264.7 cells (MTT)” value was “did not exhibit significant cytotoxicity”.
With `O=c1ccc2cc(O)c(O)cc2o1` [Compound 19] the “Cytotoxicity in RAW 264.7 cells (MTT)” value was “did not exhibit significant cytotoxicity”.
With `COc1cc(/C=C/C(=O)O[C@@H]2C[C@@](O)(C(=O)O)C[C@@H](O)[C@@H]2O)ccc1O` [Compound 3] the “Cytotoxicity in RAW 264.7 cells (MTT)” value was “did not exhibit significant cytotoxicity”.
`O=C(C=Cc1ccc(O)c(O)c1)OC1C(O)CC(O)(C(=O)O)CC1O` (centres unmarked) [Compound 7] was tested, and the “Cytotoxicity in RAW 264.7 cells (MTT)” value was “did not exhibit significant cytotoxicity”.
In the case of `C[C@@H]1O[C@@H](OC[C@H]2O[C@@H](Oc3c(-c4ccc(O)cc4)oc4cc(O)cc(O)c4c3=O)[C@H](O)[C@@H](O)[C@H]2O)[C@H](O)[C@H](O)[C@H]1O` [Compound 15], the “Cytotoxicity in RAW 264.7 cells (MTT)” value is reported as “did not exhibit significant cytotoxicity”.
`O=c1c(O[C@@H]2O[C@H](CO)[C@@H](O)[C@H](O)[C@H]2O)c(-c2ccc(O)cc2)oc2cc(O)cc(O)c12` [Compound 14] was tested, and the “Cytotoxicity in RAW 264.7 cells (MTT)” value was “did not exhibit significant cytotoxicity”.
`O=C(O)/C=C/c1ccc(O)c(O)c1` [Compound 30] was tested, and the “Cytotoxicity in RAW 264.7 cells (MTT)” value was “did not exhibit significant cytotoxicity”.
In the case of `OC[C@H]1O[C@@H](OCCc2ccccc2)[C@H](O)[C@@H](O)[C@@H]1O` [Compound 34], the “Cytotoxicity in RAW 264.7 cells (MTT)” value is reported as “did not exhibit significant cytotoxicity”.
`OC[C@H]1O[C@@H](OC[C@@H](O)c2ccc(O)cc2)[C@H](O)[C@@H](O)[C@@H]1O` [Compound 35] was tested, and the “Cytotoxicity in RAW 264.7 cells (MTT)” value was “did not exhibit significant cytotoxicity”.
`O=Cc1ccc(O)c(O)c1` [Compound 24] was tested, and the “Cytotoxicity in RAW 264.7 cells (MTT)” value was “did not exhibit significant cytotoxicity”.
`COc1ccc(C(=O)O)cc1O` [Compound 27] was tested, and the “Cytotoxicity in RAW 264.7 cells (MTT)” value was “did not exhibit significant cytotoxicity”.
For `CCCCOC(=O)[C@@]1(O)C[C@@H](O)[C@H](O)[C@H](OC(=O)/C=C/c2ccc(O)c(O)c2)C1` [Compound 5], the “Cytotoxicity in RAW 264.7 cells (MTT)” value was “did not exhibit significant cytotoxicity”.
For `CC/C=C\CCO[C@@H]1O[C@H](CO)[C@@H](O)[C@H](O)[C@H]1O` [Compound 37], the “Cytotoxicity in RAW 264.7 cells (MTT)” value was “did not exhibit significant cytotoxicity”.
With `Oc1ccc(/C=C/c2cc(O)cc(O)c2)cc1` [Compound 32] the “Cytotoxicity in RAW 264.7 cells (MTT)” value was “did not exhibit significant cytotoxicity”.
